Data on 17 compounds can be found in ChEMBL document CHEMBL2375248, “C1 and N5 derivatives of cerpegin: synthesis of a new series based on structure-activity relationships to optimize their inhibitory effect on 20S proteasome” (Bioorg Med Chem Lett, 2013).

The term inhibition denotes the change of the read-out against control, counted positive when it falls. What is called pIC50 is the negative decadic logarithm of the IC50, by convention in mol/L.

pIC50: −log10 of the molar value. Calls of active or inactive are those of the source. The calls are words filed in the database; no cut-off is given here.

The target in the first assay is Cathepsin B (Homo sapiens) (UniProt P07858). Put plainly: Inhibition of cathepsin B in human hepatocytes using Z-RR-AMC as substrate by fluorescence assay. In kind it is cell-based. The following applies: Hepatocyte.
With `Cc1noc(NS(=O)(=O)c2ccc(-n3ccc4c(c3=O)C(=O)OC4(C)C)cc2)c1C`, the inhibition entry is “inactive”.

Take `CC1(Cc2ccccc2)OC(=O)c2c1ccn(-c1ccc(S(N)(=O)=O)cc1)c2=O` (racemic): the inhibition result was “inactive”.

`CC1(C)CC2(CCO1)OC(=O)c1c2ccn(CCCN2CCOCC2)c1=O` (configuration not stated): the inhibition result was “inactive”.

For `CC(=O)NS(=O)(=O)c1ccc(-n2ccc3c(c2=O)C(=O)OC3(C)C)cc1`, the inhibition result is “inactive”.

For the compound `CCC1(C)OC(=O)c2c1ccn(-c1ccc(S(N)(=O)=O)cc1)c2=O` (racemic), the inhibition entry is “inactive”.

`CC1(C)OC(=O)c2c1ccn(-c1ccc(S(=O)(=O)Nc3nccs3)cc1)c2=O`: the inhibition result was “inactive”.

Take `CCN(CC)CC(O)Cn1ccc2c(c1=O)C(=O)OC21CCOC(C)(C)C1` (configuration not stated): the inhibition entry was “inactive”.

For `CC(C)CC1(C)OC(=O)c2c1ccn(-c1ccc(S(N)(=O)=O)cc1)c2=O` (racemic), the inhibition result was “inactive”.

`CCN(CC)CC(O)Cn1ccc2c(c1=O)C(=O)OC2(C)c1ccccc1` (mixture of isomers): the inhibition result is “inactive”.

For the compound `CC1(C)OC(=O)c2c1ccn(-c1ccc(S(=O)(=O)Nc3ncccn3)cc1)c2=O`, the inhibition result was “inactive”.

With `CC1(C)OC(=O)c2c1ccn(-c1ccc(S(=O)(=O)Nc3ccnn3-c3ccccc3)cc1)c2=O`, the inhibition entry was “inactive”.

For `CC1(C)OC(=O)c2c1ccn(-c1ccc(S(=O)(=O)NC(=N)N)cc1)c2=O`, the inhibition entry was “inactive”.

`NS(=O)(=O)c1ccc(-n2ccc3c(c2=O)C(=O)OC32CCCCC2)cc1`: the inhibition entry was “inactive”.

As for `CC1(C)OC(=O)c2c1ccn(-c1ccc(S(N)(=O)=O)cc1)c2=O`, the inhibition entry was “inactive”.

Regarding `O=C1OC2(CCCCC2)c2ccn(CC(O)CO)c(=O)c21` (configuration not stated), the inhibition entry is “inactive”.

In the case of `CC1(C)OC(=O)c2c1ccn(-c1ccc(S(=O)(=O)Nc3ccccn3)cc1)c2=O`, the inhibition result was “inactive”.

A further assay is filed under the species Oryctolagus cuniculus. Put plainly: Inhibition of caspase-like activity of 20S proteasome in rabbit erythrocytes using Z-LLE-betaNA as substrate at 100 uM preincubated for 15 mins measured after 45 mins by fluorescence assay relative to control.
Conditions: not given
`Cc1noc(NS(=O)(=O)c2ccc(-n3ccc4c(c3=O)C(=O)OC4(C)C)cc2)c1C`: the inhibition was found to be 51%.

On to `CC1(C)OC(=O)c2c1ccn(-c1ccc(S(=O)(=O)Nc3nccs3)cc1)c2=O`, for which the inhibition turned out to be 22%.

Turning to `CC1(C)OC(=O)c2c1ccn(-c1ccc(S(=O)(=O)Nc3ncccn3)cc1)c2=O`, the inhibition was 51%.

In the case of `CC1(C)OC(=O)c2c1ccn(-c1ccc(S(=O)(=O)Nc3ccnn3-c3ccccc3)cc1)c2=O`, the inhibition was found to be 28%.

`CC1(C)OC(=O)c2c1ccn(-c1ccc(S(=O)(=O)Nc3ccccn3)cc1)c2=O` yielded an inhibition of 64%.

Biological target in a further assay: not listed separately
Put plainly: Inhibition of caspase-like activity of 20S proteasome in rabbit erythrocytes using Z-LLE-betaNA as substrate preincubated for 15 mins measured after 45 mins by fluorescence assay. It counts as cell-based, Oryctolagus cuniculus. The following applies: read-out: IC50.
Regarding `C[C@@]12OC(=O)[C@]1([C@@H](O)[C@@H]1C=CCCC1)NC(=O)[C@@H]2CCCl` [MARIZOMIB], the pIC50 was 6.34.

For the compound `CC1(Cc2ccccc2)OC(=O)c2c1ccn(-c1ccc(S(N)(=O)=O)cc1)c2=O` (racemic), the pIC50 is 5.44.

`CC1(C)CC2(CCO1)OC(=O)c1c2ccn(CCCN2CCOCC2)c1=O` (configuration not stated): the pIC50 was 4.26.

Consider `CC(=O)NS(=O)(=O)c1ccc(-n2ccc3c(c2=O)C(=O)OC3(C)C)cc1`, for which the pIC50 was 5.24.

Consider `CCC1(C)OC(=O)c2c1ccn(-c1ccc(S(N)(=O)=O)cc1)c2=O` (racemic), for which the pIC50 is 5.31.

In the case of `CCN(CC)CC(O)Cn1ccc2c(c1=O)C(=O)OC21CCOC(C)(C)C1` (configuration not stated), the negative logarithm of the IC50 (pIC50) is 5.39.

As to `CC(C)CC1(C)OC(=O)c2c1ccn(-c1ccc(S(N)(=O)=O)cc1)c2=O` (racemic), the pIC50 is 5.34.

As for `CCN(CC)CC(O)Cn1ccc2c(c1=O)C(=O)OC2(C)c1ccccc1` (mixture of isomers), the pIC50 was 5.36.

With `CC1(C)OC(=O)c2c1ccn(-c1ccc(S(=O)(=O)NC(=N)N)cc1)c2=O`, the pIC50 was 5.23.

In the case of `NS(=O)(=O)c1ccc(-n2ccc3c(c2=O)C(=O)OC32CCCCC2)cc1`, the pIC50 is 5.18.

`CC1(C)OC(=O)c2c1ccn(-c1ccc(S(N)(=O)=O)cc1)c2=O`: the pIC50 is 5.21.

Take `O=C1OC2(CCCCC2)c2ccn(CC(O)CO)c(=O)c21` (configuration not stated): the pIC50 was 5.09.

System in the next assay: not listed separately
Description: Inhibition of trypsin-like activity of 20S proteasome in rabbit erythrocytes using Boc-LRR-AMC as substrate preincubated for 15 mins measured after 45 mins by fluorescence assay. In kind it is cell-based, Oryctolagus cuniculus.
Conditions: not given
`Cc1noc(NS(=O)(=O)c2ccc(-n3ccc4c(c3=O)C(=O)OC4(C)C)cc2)c1C`: the IC50 entry is listed as “Not Active”.

`CC1(Cc2ccccc2)OC(=O)c2c1ccn(-c1ccc(S(N)(=O)=O)cc1)c2=O` (racemic): the IC50 result was “Not Active”.

In the case of `CC1(C)CC2(CCO1)OC(=O)c1c2ccn(CCCN2CCOCC2)c1=O` (configuration not stated), the IC50 entry is “Not Active”.

With `CC(=O)NS(=O)(=O)c1ccc(-n2ccc3c(c2=O)C(=O)OC3(C)C)cc1`, the IC50 entry is “Not Active”.

As to `CCC1(C)OC(=O)c2c1ccn(-c1ccc(S(N)(=O)=O)cc1)c2=O` (racemic), the IC50 entry is “Not Active”.

`CC1(C)OC(=O)c2c1ccn(-c1ccc(S(=O)(=O)Nc3nccs3)cc1)c2=O`: the IC50 entry is on record as “Not Active”.

Turning to `CCN(CC)CC(O)Cn1ccc2c(c1=O)C(=O)OC21CCOC(C)(C)C1` (configuration not stated), the IC50 result is given as “Not Active”.

Take `CC(C)CC1(C)OC(=O)c2c1ccn(-c1ccc(S(N)(=O)=O)cc1)c2=O` (racemic): the IC50 result is recorded as “Not Active”.

With `CCN(CC)CC(O)Cn1ccc2c(c1=O)C(=O)OC2(C)c1ccccc1` (mixture of isomers), the IC50 result is on record as “Not Active”.

Regarding `CC1(C)OC(=O)c2c1ccn(-c1ccc(S(=O)(=O)Nc3ncccn3)cc1)c2=O`, the IC50 result is on record as “Not Active”.

As for `CC1(C)OC(=O)c2c1ccn(-c1ccc(S(=O)(=O)Nc3ccnn3-c3ccccc3)cc1)c2=O`, the IC50 result is given as “Not Active”.

Consider `CC1(C)OC(=O)c2c1ccn(-c1ccc(S(=O)(=O)NC(=N)N)cc1)c2=O`, for which the IC50 result is given as “Not Active”.

Consider `NS(=O)(=O)c1ccc(-n2ccc3c(c2=O)C(=O)OC32CCCCC2)cc1`, for which the IC50 result is given as “Not Active”.

Regarding `CC1(C)OC(=O)c2c1ccn(-c1ccc(S(N)(=O)=O)cc1)c2=O`, the IC50 result is reported as “Not Active”.

On to `O=C1OC2(CCCCC2)c2ccn(CC(O)CO)c(=O)c21` (configuration not stated), for which the IC50 entry is “Not Active”.

With `CC1(C)OC(=O)c2c1ccn(-c1ccc(S(=O)(=O)Nc3ccccn3)cc1)c2=O`, the IC50 result is “Not Active”.

The assay is the same for the next values; noted with them: read-out: IC50.
For `C[C@@]12OC(=O)[C@]1([C@@H](O)[C@@H]1C=CCCC1)NC(=O)[C@@H]2CCCl` [MARIZOMIB], the pIC50 is 7.68.

System in the next assay: not listed separately
Put plainly: Inhibition of chymotrypsin-like activity of 20S proteasome in rabbit erythrocytes using Suc-LLVY-AMC as substrate preincubated for 15 mins measured after 45 mins by fluorescence assay. It counts as cell-based, Oryctolagus cuniculus.
Conditions: not given
With `Cc1noc(NS(=O)(=O)c2ccc(-n3ccc4c(c3=O)C(=O)OC4(C)C)cc2)c1C`, the IC50 entry was “Not Active”.

As to `CC1(Cc2ccccc2)OC(=O)c2c1ccn(-c1ccc(S(N)(=O)=O)cc1)c2=O` (racemic), the IC50 result is recorded as “Not Active”.

Take `CC1(C)CC2(CCO1)OC(=O)c1c2ccn(CCCN2CCOCC2)c1=O` (configuration not stated): the IC50 entry is listed as “Not Active”.

For the compound `CC(=O)NS(=O)(=O)c1ccc(-n2ccc3c(c2=O)C(=O)OC3(C)C)cc1`, the IC50 entry is given as “Not Active”.

For `CCC1(C)OC(=O)c2c1ccn(-c1ccc(S(N)(=O)=O)cc1)c2=O` (racemic), the IC50 result is “Not Active”.

Turning to `CC1(C)OC(=O)c2c1ccn(-c1ccc(S(=O)(=O)Nc3nccs3)cc1)c2=O`, the IC50 entry is “Not Active”.

As to `CCN(CC)CC(O)Cn1ccc2c(c1=O)C(=O)OC21CCOC(C)(C)C1` (configuration not stated), the IC50 entry is listed as “Not Active”.

For the compound `CC(C)CC1(C)OC(=O)c2c1ccn(-c1ccc(S(N)(=O)=O)cc1)c2=O` (racemic), the IC50 result is given as “Not Active”.

Consider `CCN(CC)CC(O)Cn1ccc2c(c1=O)C(=O)OC2(C)c1ccccc1` (mixture of isomers), for which the IC50 entry is recorded as “Not Active”.

With `CC1(C)OC(=O)c2c1ccn(-c1ccc(S(=O)(=O)Nc3ncccn3)cc1)c2=O`, the IC50 result is “Not Active”.

`CC1(C)OC(=O)c2c1ccn(-c1ccc(S(=O)(=O)Nc3ccnn3-c3ccccc3)cc1)c2=O`: the IC50 entry is recorded as “Not Active”.

`CC1(C)OC(=O)c2c1ccn(-c1ccc(S(=O)(=O)NC(=N)N)cc1)c2=O`: the IC50 result is listed as “Not Active”.

As for `NS(=O)(=O)c1ccc(-n2ccc3c(c2=O)C(=O)OC32CCCCC2)cc1`, the IC50 entry is recorded as “Not Active”.

On to `CC1(C)OC(=O)c2c1ccn(-c1ccc(S(N)(=O)=O)cc1)c2=O`, for which the IC50 entry is “Not Active”.

Consider `O=C1OC2(CCCCC2)c2ccn(CC(O)CO)c(=O)c21` (configuration not stated), for which the IC50 entry is “Not Active”.

For `CC1(C)OC(=O)c2c1ccn(-c1ccc(S(=O)(=O)Nc3ccccn3)cc1)c2=O`, the IC50 result is “Not Active”.

The same assay, now with this note: read-out: IC50.
On to `C[C@@]12OC(=O)[C@]1([C@@H](O)[C@@H]1C=CCCC1)NC(=O)[C@@H]2CCCl` [MARIZOMIB], for which the pIC50 was 8.59.
